Results on 3 compounds are retold here after patent publication US20230295152A1 (SENDA BIOSCIENCES, INC., priority 2019, published 2023).

As usually defined, the Cmax is the peak of the concentration-time curve. What is called Tmax is the time from dosing to the highest level.

The structures appear in SMILES notation.

The nature of data set [1]: Liver Microsome Stability Assay, human. Format: in vitro ADME. The note with it: human liver microsomes. Here is the method: Two separate experiments were performed as follows.
With Cofactors (NADPH): 25 μL of 10 mM NADPH was added to the incubations. The final concentrations of microsomes and NADPH were 0.5 mg/mL and 1 mM, respectively. The final concentration of microsomes was 0.5 mg/mL. The mixture was pre-warmed at 37° C. for 10 minutes. The reaction was started with the addition of 2.5 μL of 100 μM control compound or test compound solutions. Verapamil was used as positive control in this study. The final concentration of test compound or control compound was 1 μM. The incubation solution was incubated in water batch at 37° C. Aliquots of 25 μL were taken from the reaction solution at 0.5, 5, 15, 30 and 60 minutes. The reaction was stopped by the addition of 5 volumes of cold acetonitrile with IS (200 nM caffeine and 100 nM tolbutamide). Samples were centrifuged at 3, 220 g for 40 minutes. Aliquot of 100 μL of the supernatant was mixed with 100 μL of ultra-pure H2O and then used for LC-MS/MS analysis.
Data Analysis: All calculations were carried out using Microsoft Excel. Peak areas were determined from extracted ion chromatograms. The slope value, k, was determined by linear regression of the natural logarithm of the remaining percentage of the parent drug vs. incubation time curve.
The in vitro half-life (in vitro t1/2) was determined from the slope value:
Conversion of the in vitro t1/2 (min) into the in vitro intrinsic clearance (in vitro CLint, in μL/min/mg protein) was done using the following equation (mean of duplicate determinations): […]
The calculations of Scaled-up CLint(mL/min/kg), Predicted CLH (mL/min/kg) and EH were done using the following equation:
Scaled-up CLint=(0.693/t1/2)×(1/(microsomal protein concentration(0.5 mg/mL)))×Scaling Factors;Predicted CLH=(QH×Scaled-up CLint×fub)/(QH+Scaled-up CLint×fub);EH=Predicted CLH/QH
where QH is the hepatic blood flow (mL/min/kg) (Table 32), • fub is the fraction of unbound drug in plasma which is assumed to be 1.
“+++” indicates a Clint value less than 10 mL/min/Kg, […] indicates a Clint between 10 and 20 mL/min/Kg, and “+” indicates a Clint above 20 mL/min/Kg.
Background: Liver microsomes are vesicles of endoplasmic reticulum, rich in cytochrome P450 enzymes.

Data set [2] can be described thus: In vivo PK study in male Sprague Dawley rats. The note with it: for AUC(0-inf): read-out: AUCInf Mean; for AUC(0-t): read-out: AUCLast Mean. Here is the method: (§1) The studies were conducted in male Sprague Dawley rats, three rats per group, or male CD1 mice, three mice per group. Compounds were dosed 1.0 mg/Kg i.v. (vehicle ethanol: % PEG400 in deionized water, in proportions suitable for dosing a clear solution) and 3.0 mg/kg or 10 mg/kg p.o. (vehicle: 1% methyl cellulose: 1,500 cP in DI water (w/v)). A11 animals had free access to food and water. Rat i.v. PK time points: Plasma: 0.083, 0.25, 0.5, 1, 2, 4, 8 and 24 h; Rat p.o. PK time points: Plasma: 0.25, 0.5, 1, 2, 4, 8 and 24 h. Mouse i.v. PK time points: Plasma: 0.083, 0.25, 0.5, 1, 2, 4, 8, 24, and 48 h; Mouse p.o. PK time points: Plasma: 0.25, 0.5, 1, 2, 4, 8, 24, and 48 h. Concentrations of compound in the plasma samples were analyzed using a LC-MS/MS method. WinNonlin (Phoenix™, version 6.1) or other similar software was used for pharmacokinetic calculations.

Data set [3] relates to CT26 cells implanted subcutaneously into Balb/c mice. As to the kind of experiment: CT26 syngeneic colon cancer model, AhR antagonist with PD-L1 antibody. In kind it is in vivo. The note with it: for Cmin: CT26 model, dose 10 mg/kg.
Data set [4] is described as follows: In vivo PK study in male CD1 mice. The note with it: for AUC(0-t): read-out: AUCLast Mean. Here is the method:
as §1

Data set [5] can be described thus: CT26 syngeneic colon cancer model, AhR antagonist with PD-L1 antibody. In kind it is in vivo. Particulars: female, Balb/c, mouse, in vivo, po; CT26 model, dose 10 mg/kg.
Where [6] appears, read: male, Sprague Dawley, rat, plasma, rats, 1 mg/kg IV.
Where [7] appears, read: male, Sprague Dawley, rat, plasma, rats, 1 mg/kg IV, read-out: T1/2 Mean (converted).
Where [8] appears, read: male, Sprague Dawley, rat, plasma, rats, PO, dosage of 3 mg/kg.
The mark [9] stands for this setting: male, Sprague Dawley, rat, plasma, rats, PO, dosage of 3 mg/kg, read-out: Bioavailability.
Setting [10] is: male, Sprague Dawley, rat, plasma, rats, PO, dosage of 10 mg/kg.
[11] abbreviates: male, CD1, mouse, plasma, mice, 1 mg/kg IV.
The mark [12] stands for this setting: male, CD1, mouse, plasma, mice, 1 mg/kg IV, read-out: T1/2 Mean (converted).
Where [13] appears, read: male, CD1, mouse, plasma, mice, 10 mg/kg PO.
Setting [14] is: male, CD1, mouse, plasma, mice, 10 mg/kg PO, read-out: Bioavailability.

In the case of `C[C@@H](CO)n1cnc2c(-c3cccc(F)c3)nc(-c3ccc(Cl)cc3)cc2c1=O` [Compound 7], the “Human liver microsome clearance” value in data set [1] is “+++ (“+++” indicates a Clint value less than 10 mL/min/Kg)”. Also, in data set [2] (setting [6]), the C0 came out at 212 ng/mL, the AUC(0-inf) came to 1000 ng·h/mL and the AUC(0-t) was determined as 659 ng·h/mL. The half-life in data set [2] (setting [7]) is 5.31 h. Besides, in data set [2] (setting [8]), the Cmax is 224 ng/mL, the time to peak (Tmax) was found to be 3.33 h and the AUC(0-t) was 2400 ng·h/mL. Further, in data set [2] (setting [9]), the bioavailability is 110%. Moreover, in data set [2] (setting [10]), the peak concentration (Cmax) was found to be 610 ng/mL, the time to peak (Tmax) was 3.33 h and the AUC(0-t) was found to be 7820 ng·h/mL. The bioavailability in data set [2] (male, Sprague Dawley, rat, plasma, rats, PO, dosage of 10 mg/kg, read-out: Bioavailability) worked out at 105%. In data set [2] (rats, 1 mg/kg IV), the “CI Mean” value stood at 295 mL/min/kg. Besides, the “tumor volume, coadministration with PD-L1 antibody” value (from here on “tumor volume, coadministration”) in data set [3] (FIG. 2, 3 mg/kg p.o. once a day over 14 days with anti-PD-L1 antibody 10 mg/kg IP every 3 days, p=0.0039 (Mann-Whitney)) is reported as “reduction in tumor volume”. Further, the “tumor weight upon termination of study, coadministration with PD-L1 antibody” value (shortened to “tumor weight upon termination of study”) in data set [3] (FIG. 3, 3 mg/kg p.o. once a day over 14 days with anti-PD-L1 antibody 10 mg/kg IP every 3 days, p=0.041 (Mann-Whitney)) is reported as “reduction in tumor weight”.
Consider `CC(C)(O)Cn1cnc2c(-c3cccnc3)nc(-c3ccc(C(F)(F)F)nc3)cc2c1=O` [Compound 9], for which the “Mouse CL (% Qh)” value in data set [4] (in vivo DMPK profile, mouse) worked out at 3.85 % Qh. Besides, the AUC(0-t) in data set [4] (setting [11]) came to 4880 ng·h/mL. Also, the half-life in data set [4] (setting [12]) was 5.37 h; in data set [4] (male, CD1, plasma, intravenous, 1 mg/kg, in vivo DMPK profile, mouse, read-out: Mouse T1/2 (converted)), 5.4 h; in data set [2] (male, Sprague Dawley, plasma, intravenous, 1 mg/kg, in vivo DMPK profile, rat, read-out: Rat T1/2 (converted)) it was 5.4 h. The figures for the maximum concentration (Cmax) in data set [4] (setting [13]) and in data set [5] were 1470 ng/mL and 4.96 µM, respectively. Further, the Tmax in data set [4] (setting [13]) is 5.67 h. Also, the AUC(0-inf) in data set [4] (male, CD1, mouse, plasma, mice, 10 mg/kg PO, read-out: AUCInf Mean) worked out at 34200 ng·h/mL. In addition, the bioavailability in data set [4] (setting [14]) stood at 70.3%; in data set [4] (male, CD1, plasma, oral, 10 mg/kg, in vivo DMPK profile, mouse, read-out: Mouse % F) it was 70.3%; in data set [2] (male, Sprague Dawley, plasma, oral, 3 mg/kg, in vivo DMPK profile, rat, read-out: Rat % F), 77%. The clearance in data set [4] (male, CD1, plasma, intravenous, 1 mg/kg, in vivo DMPK profile, mouse, read-out: Mouse CL) turned out to be 3.4 mL/min/kg; in data set [2] (male, Sprague Dawley, plasma, intravenous, 1 mg/kg, in vivo DMPK profile, rat, read-out: Rat CL), 4.1 mL/min/kg. Further, the Vd in data set [4] (male, CD1, plasma, intravenous, 1 mg/kg, in vivo DMPK profile, mouse, read-out: Mouse Vss) is 1.9 L/kg; in data set [2] (male, Sprague Dawley, plasma, intravenous, 1 mg/kg, in vivo DMPK profile, rat, read-out: Rat Vss), 1.75 L/kg. The “CI Mean” value in data set [4] (mice, 1 mg/kg IV) is 57 mL/min/kg. The “Rat CL (% Qh)” value in data set [2] (in vivo DMPK profile, rat) turned out to be 5.8 % Qh. The “tumor volume and weight, combination with PD-L1 compared to PD-L1 alone (overall)” value in data set [3] (10 mg/kg or 1 mg/kg p.o. once a day over 14 days with anti-PD-L1 antibody 10 mg/kg IP every 3 days) was “decreases tumor volume and weight compared to PD-L1 alone”. The same compound returned a Cmin in data set [3] of 849 nm. Besides, the “tumor volume, coadministration” value in data set [3] (FIG. 8, 10 mg/kg p.o. once a day over 14 days with anti-PD-L1 antibody 10 mg/kg IP every 3 days, p=0.0070 (Mann-Whitney)) is given as “reduction in tumor volume”; in data set [3] (FIG. 10, 1 mg/kg p.o. once a day over 14 days with anti-PD-L1 antibody 10 mg/kg IP every 3 days, p=0.0039 (Kruskal Wallis, Dunn's)), “reduction in tumor volume”. Besides, the “tumor weight upon termination of study” value is given as “reduction in tumor weight” in data set [3] (FIG. 9, p.o. once a day over 14 days with anti-PD-L1 antibody 10 mg/kg IP every 3 days, p=0.0114 (Mann-Whitney)) and “reduction in tumor weight” in data set [3] (FIG. 11, p.o. once a day over 14 days with anti-PD-L1 antibody 10 mg/kg IP every 3 days, p=0.0029 (Kruskal Wallis, Dunn's)).
Turning to `C[C@H](n1cnc2c(-c3cnn(C)c3)nc(-c3ccc(Cl)cc3)cc2c1=O)C(C)(C)O` [Compound 30], the figures for the C0 in data set [4] (setting [11]) and in data set [2] (setting [6]) were 457 ng/mL and 311 ng/mL, respectively. For the same compound, the AUC(0-t) in data set [4] (setting [11]) was 6380 ng·h/mL; in data set [4] (setting [13]), 72800 ng·h/mL; in data set [2] (setting [6]) it was 2010 ng·h/mL; in data set [2] (setting [8]) it was 3250 ng·h/mL. In addition, the half-life in data set [4] (setting [12]) is 8.6 h; in data set [2] (setting [7]) it was 3.62 h. Moreover, the results for the Cmax in data set [4] (setting [13]), in data set [2] (setting [8]) and in data set [5] were 2160 ng/mL, 276 ng/mL and 5.88 µM, respectively. Moreover, the Tmax in data set [4] (setting [13]) was found to be 8 h; in data set [2] (setting [8]) it was 3.33 h. For the same compound, the bioavailability in data set [4] (setting [14]) is 114%; in data set [2] (setting [9]), 53.9%. In addition, the “CI Mean” value in data set [4] (mice, 1 mg/kg IV) is 43.3 mL/min/kg; in data set [2] (rats, 1 mg/kg IV), 143 mL/min/kg. For the same compound, in data set [2] (setting [6]), the AUC(0-inf) worked out at 2030 ng·h/mL. In addition, the Cmin in data set [3] was 1,725 nm. The “tumor volume, coadministration” value is given as “reduction in tumor volume” in data set [3] (FIG. 4, 10 mg/kg p.o. once a day over 14 days with anti-PD-L1 antibody 10 mg/kg IP every 3 days, p=0.039 (Mann-Whitney)) and “reduction in tumor volume” in data set [3] (FIG. 6, 10 mg/kg p.o. once a day over 14 days with anti-PD-L1 antibody 10 mg/kg IP every 3 days, p=0.350 (Kruskal Wallis, Dunn's)). Also, the “tumor weight upon termination of study” value in data set [3] (FIG. 5, 10 mg/kg p.o. once a day over 14 days with anti-PD-L1 antibody 10 mg/kg IP every 3 days, p=0.067 (Mann-Whitney)) is “reduction in tumor weight”; in data set [3] (FIG. 7, 10 mg/kg p.o. once a day over 14 days with anti-PD-L1 antibody 10 mg/kg IP every 3 days, p=0.0004 (Kruskal Wallis, Dunn's)) it was “reduction in tumor weight”.
